Biological target: Helios (Homo sapiens, UniProt Q96SW2+Q9UKS7)
Assay: Helios Human T Regulatory Cells Degradation Assay
Assay type: cell-based
Parameters: fluorescently labelled antibodies against Helios in 1× Permeabilization buffer; endogenous in cells; host or cells: cryopreserved human T regulatory cells
Conditions: cryopreserved human T regulatory cells, incubated 20 hours, Helios-APC antibody staining, flow cytometry; read-out: hTreg Helios DC50
Protocol: Cryopreserved human T regulatory cells were thawed in RPMI+10% FBS+20 ng/mL IL-2. After being spun at 1200 rpm for 5 mins, the cells were resuspended in RPMI+10% FBS+20 ng/mL and rested at 37° C. with 5% CO2 for 3 hours. […] Cell cultures were incubated for 20 hours at 37° C. and 5% CO2. In order to facilitate analysis, cell cultures were spun down at 1200 rpm for 5 minutes and the supernatant was discarded using an EL406 plate washer. After washing three times with 70 μL PBS, cell pellets were resuspended in 50 μL of near IR viability staining solution (Life Technologies, Cat #L34975) and incubated for 30 minutes on ice protected from light. Cells were washed three times with 70 μL PBS+0.5% BSA using an EL406 plate washer. […] Subsequently, 30 μL of 1× Permeabilization buffer was added prior to centrifuging the cells and discarding the supernatant. Stained cells were resuspended in 30 μL of flow cytometry staining buffer (PBS+0.5% BSA) and analyzed using an Intellicyt Ique Plus flow cytometer.

Helios, sequence (Q9UKS7 whole entry): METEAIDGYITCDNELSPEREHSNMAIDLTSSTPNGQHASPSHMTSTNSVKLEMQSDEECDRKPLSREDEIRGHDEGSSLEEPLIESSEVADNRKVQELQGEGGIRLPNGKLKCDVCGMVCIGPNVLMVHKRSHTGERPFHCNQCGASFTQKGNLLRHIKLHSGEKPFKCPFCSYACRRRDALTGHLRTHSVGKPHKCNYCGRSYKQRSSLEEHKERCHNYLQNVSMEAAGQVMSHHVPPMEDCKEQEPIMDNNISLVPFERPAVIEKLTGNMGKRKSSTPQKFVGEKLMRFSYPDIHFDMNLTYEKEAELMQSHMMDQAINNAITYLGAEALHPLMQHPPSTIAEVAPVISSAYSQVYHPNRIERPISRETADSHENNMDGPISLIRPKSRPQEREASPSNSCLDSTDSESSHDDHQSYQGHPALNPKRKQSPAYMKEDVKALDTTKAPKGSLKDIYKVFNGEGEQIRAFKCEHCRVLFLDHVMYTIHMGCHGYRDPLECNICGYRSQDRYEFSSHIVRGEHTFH
Helios, sequence (Q96SW2 whole entry): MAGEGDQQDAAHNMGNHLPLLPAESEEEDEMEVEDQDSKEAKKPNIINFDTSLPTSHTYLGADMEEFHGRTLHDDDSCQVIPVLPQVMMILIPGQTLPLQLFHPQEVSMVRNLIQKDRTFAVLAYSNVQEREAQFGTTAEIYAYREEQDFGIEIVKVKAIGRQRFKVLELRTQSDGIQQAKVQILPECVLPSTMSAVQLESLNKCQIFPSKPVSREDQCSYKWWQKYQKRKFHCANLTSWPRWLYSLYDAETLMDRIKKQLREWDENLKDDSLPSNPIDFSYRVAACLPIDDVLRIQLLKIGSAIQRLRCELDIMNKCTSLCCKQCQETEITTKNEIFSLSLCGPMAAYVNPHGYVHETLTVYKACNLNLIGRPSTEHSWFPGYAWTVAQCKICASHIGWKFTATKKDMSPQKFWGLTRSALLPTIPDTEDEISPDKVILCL
Helios, sequence (Q16531 whole entry partner): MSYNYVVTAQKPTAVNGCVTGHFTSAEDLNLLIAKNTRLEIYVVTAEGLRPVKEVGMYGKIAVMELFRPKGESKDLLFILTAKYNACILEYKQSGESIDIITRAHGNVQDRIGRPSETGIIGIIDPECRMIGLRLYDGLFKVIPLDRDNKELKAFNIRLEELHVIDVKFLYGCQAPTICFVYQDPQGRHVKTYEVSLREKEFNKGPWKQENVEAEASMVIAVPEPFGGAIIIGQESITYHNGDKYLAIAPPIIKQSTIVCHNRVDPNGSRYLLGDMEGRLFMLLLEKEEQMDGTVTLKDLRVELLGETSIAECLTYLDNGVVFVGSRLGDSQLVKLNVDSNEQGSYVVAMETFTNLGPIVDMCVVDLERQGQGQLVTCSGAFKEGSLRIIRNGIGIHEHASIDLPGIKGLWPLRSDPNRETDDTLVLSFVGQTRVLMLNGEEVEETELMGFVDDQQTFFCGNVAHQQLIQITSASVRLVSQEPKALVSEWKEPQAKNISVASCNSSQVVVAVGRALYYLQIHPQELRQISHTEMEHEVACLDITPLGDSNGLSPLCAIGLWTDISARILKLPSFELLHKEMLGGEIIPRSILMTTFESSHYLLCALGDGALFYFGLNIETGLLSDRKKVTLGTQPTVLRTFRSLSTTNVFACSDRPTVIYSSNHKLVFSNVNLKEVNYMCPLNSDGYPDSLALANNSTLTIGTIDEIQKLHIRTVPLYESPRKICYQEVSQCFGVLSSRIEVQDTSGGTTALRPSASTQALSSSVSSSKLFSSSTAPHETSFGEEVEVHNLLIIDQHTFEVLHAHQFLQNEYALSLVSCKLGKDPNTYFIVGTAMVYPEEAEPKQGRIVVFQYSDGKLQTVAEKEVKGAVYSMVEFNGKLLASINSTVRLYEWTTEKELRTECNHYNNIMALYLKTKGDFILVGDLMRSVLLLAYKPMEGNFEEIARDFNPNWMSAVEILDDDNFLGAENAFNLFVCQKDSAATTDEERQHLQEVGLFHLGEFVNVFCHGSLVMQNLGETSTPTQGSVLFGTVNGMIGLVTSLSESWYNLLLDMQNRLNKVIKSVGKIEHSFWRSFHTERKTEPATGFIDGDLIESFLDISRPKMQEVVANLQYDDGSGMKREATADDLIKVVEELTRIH

Structure (SMILES)	DC50 [nM]
Cc1cnn(Cc2ccnc(-c3ccc4c(c3)CN([C@H]3CCC(=O)NC3=O)C4=O)c2)c1 [Example 166, (S)-3-(5-(4-((4-methyl-1H-pyrazol-1-yl)methyl)pyridin-2-yl)-1-oxoisoindolin-2-yl)piperidine-2,6-dione]	≥ 10000
Cc1cnc(-c2ccc3c(c2)CN(C2CCC(=O)NC2=O)C3=O)cc1CN1CCC(C(C)(C)O)CC1 (centres unmarked) [Example 167, 3-(5-(4-((4-(2-hydroxypropan-2-yl)piperidin-1-yl)methyl)-5-methylpyridin-2-yl)-1-oxoisoindolin-2-yl)piperidine-2,6-dione]	1
Cc1cnc(-c2ccc3c(c2)CN(C2CCC(=O)NC2=O)C3=O)cc1CN1CC2(CCC2)C1 (centres unmarked) [Example 168, 3-(5-(4-((2-azaspiro[3.3]heptan-2-yl)methyl)-5-methylpyridin-2-yl)-1-oxoisoindolin-2-yl)piperidine-2,6-dione]	3.7
Cc1cnc(-c2ccc3c(c2)CN(C2CCC(=O)NC2=O)C3=O)cc1CN1CCC(C2CC2)C1 (centres unmarked) [Example 169, 3-(5-(4-((3-cyclopropylpyrrolidin-1-yl)methyl)-5-methylpyridin-2-yl)-1-oxoisoindolin-2-yl)piperidine-2,6-dione]	4
COc1c(CN2CCC(C(C)(C)O)CC2)ccnc1-c1ccc2c(c1)CN(C1CCC(=O)NC1=O)C2=O (centres unmarked) [Example 172, 3-(5-(4-((4-(2-hydroxypropan-2-yl)piperidin-1-yl)methyl)-3-methoxypyridin-2-yl)-1-oxoisoindolin-2-yl)piperidine-2,6-dione]	5.2
COc1c(CN2CCC(C3CC3)C2)ccnc1-c1ccc2c(c1)CN(C1CCC(=O)NC1=O)C2=O (centres unmarked) [Example 173, 3-(5-(4-((3-cyclopropylpyrrolidin-1-yl)methyl)-3-methoxypyridin-2-yl)-1-oxoisoindolin-2-yl)piperidine-2,6-dione]	0.4
COc1cc(CN2CC3(CCC3)C2)cc(-c2ccc3c(c2)CN(C2CCC(=O)NC2=O)C3=O)n1 (centres unmarked) [Example 174, 3-(5-(4-((2-azaspiro[3.3]heptan-2-yl)methyl)-6-methoxypyridin-2-yl)-1-oxoisoindolin-2-yl)piperidine-2,6-dione]	1.5
COc1cc(CN2CCC(C3CC3)C2)cc(-c2ccc3c(c2)CN(C2CCC(=O)NC2=O)C3=O)n1 (centres unmarked) [Example 175, 3-(5-(4-((3-cyclopropylpyrrolidin-1-yl)methyl)-6-methoxypyridin-2-yl)-1-oxoisoindolin-2-yl)piperidine-2,6-dione]	0.2
O=C1CCC(N2Cc3cc(-c4cc(CN5CC6(CCC6)C5)c(C(F)(F)F)cn4)ccc3C2=O)C(=O)N1 (centres unmarked) [Example 180, 3-(5-(4-((2-azaspiro[3.3]heptan-2-yl)methyl)-5-(trifluoromethyl)pyridin-2-yl)-1-oxoisoindolin-2-yl)piperidine-2,6-dione]	≥ 10000
COCC1CN(Cc2cc(-c3ccc4c(c3)CN(C3CCC(=O)NC3=O)C4=O)ncc2C(F)(F)F)C1 (centres unmarked) [Example 181, 3-(5-(4-((3-(methoxymethyl)azetidin-1-yl)methyl)-5-(trifluoromethyl)pyridin-2-yl)-1-oxoisoindolin-2-yl)piperidine-2,6-dione]	≥ 10000
O=C1CCC(N2Cc3cc(-c4nccc(CN5CCC(OC(F)(F)F)C5)c4F)ccc3C2=O)C(=O)N1 (centres unmarked) [Example 183, 3-(5-(3-fluoro-4-((3-(trifluoromethoxy)pyrrolidin-1-yl)methyl)pyridin-2-yl)-1-oxoisoindolin-2-yl)piperidine-2,6-dione]	≥ 10000
O=C1CCC(N2Cc3cc(-c4nccc(CN5CC[C@H](F)C5)c4F)ccc3C2=O)C(=O)N1 (stereo partly drawn) [Example 184, 3-(5-(3-fluoro-4-(((S)-3-fluoropyrrolidin-1-yl)methyl)pyridin-2-yl)-1-oxoisoindolin-2-yl)piperidine-2,6-dione]	3160
O=C1CCC(N2Cc3cc(-c4nccc(CN5CCC(O)(C(F)(F)F)C5)c4F)ccc3C2=O)C(=O)N1 (centres unmarked) [Example 185, 3-(5-(3-fluoro-4-((3-hydroxy-3-(trifluoromethyl)pyrrolidin-1-yl)methyl)pyridin-2-yl)-1-oxoisoindolin-2-yl)piperidine-2,6-dione]	≥ 10000
O=C1CCC(N2Cc3cc(-c4nccc(CN5Cc6cccc(F)c6C5)c4F)ccc3C2=O)C(=O)N1 (centres unmarked) [Example 186, 3-(5-(3-fluoro-4-((4-fluoroisoindolin-2-yl)methyl)pyridin-2-yl)-1-oxoisoindolin-2-yl)piperidine-2,6-dione]	≥ 10000
O=C1CCC(N2Cc3cc(-c4nccc(CN5Cc6ccc(Cl)cc6C5)c4F)ccc3C2=O)C(=O)N1 (centres unmarked) [Example 187, 3-(5-(4-((5-chloroisoindolin-2-yl)methyl)-3-fluoropyridin-2-yl)-1-oxoisoindolin-2-yl)piperidine-2,6-dione]	≥ 10000
CC(C)(C)NC(=O)C1CCCN1Cc1ccnc(-c2ccc3c(c2)CN(C2CCC(=O)NC2=O)C3=O)c1 (centres unmarked) [Example 188, N-(tert-butyl)-1-((2-(2-(2,6-dioxopiperidin-3-yl)-1-oxoisoindolin-5-yl)pyridin-4-yl)methyl)pyrrolidine-2-carboxamide]	28.7
COCC1N(Cc2ccnc(-c3ccc4c(c3)CN(C3CCC(=O)NC3=O)C4=O)c2)CC12CCC2 (centres unmarked) [Example 189, 3-(5-(4-((1-(methoxymethyl)-2-azaspiro[3.3]heptan-2-yl)methyl)pyridin-2-yl)-1-oxoisoindolin-2-yl)piperidine-2,6-dione]	6.4
O=C1CCC(N2Cc3cc(-c4cc(CN5CCC[C@H]5C(=O)NC5CCCCC5)ccn4)ccc3C2=O)C(=O)N1 (stereo partly drawn) [Example 190, (2S)—N-cyclohexyl-1-((2-(2-(2,6-dioxopiperidin-3-yl)-1-oxoisoindolin-5-yl)pyridin-4-yl)methyl)pyrrolidine-2-carboxamide]	49.7
O=C1CCC(N2Cc3cc(-c4cc(CN5CC[C@@H]5COc5ccc(Cl)nc5)ccn4)ccc3C2=O)C(=O)N1 (stereo partly drawn) [Example 191, 3-(5-(4-(((R)-2-(((6-chloropyridin-3-yl)oxy)methyl)azetidin-1-yl)methyl)pyridin-2-yl)-1-oxoisoindolin-2-yl)piperidine-2,6-dione]	53.6
O=C1CCC(N2Cc3cc(-c4cc(CN5CCC5COc5ccc(F)cc5)ccn4)ccc3C2=O)C(=O)N1 (centres unmarked) [Example 192, 3-(5-(4-((2-((4-fluorophenoxy)methyl)azetidin-1-yl)methyl)pyridin-2-yl)-1-oxoisoindolin-2-yl) piperidine-2,6-dione]	7.7
CC(C)(C)OC(=O)NC[C@@H]1CCCN1Cc1ccnc(-c2ccc3c(c2)CN(C2CCC(=O)NC2=O)C3=O)c1 (stereo partly drawn) [Example 195, tert-butyl (((2S)-1-((2-(2-(2,6-dioxopiperidin-3-yl)-1-oxoisoindolin-5-yl)pyridin-4-yl)methyl)pyrrolidin-2-yl)methyl)carbamate]	23.5
CC(C)OCC1CCN1Cc1ccnc(-c2ccc3c(c2)CN(C2CCC(=O)NC2=O)C3=O)c1 (centres unmarked) [Example 196, 3-(5-(4-((2-(isopropoxymethyl)azetidin-1-yl)methyl)pyridin-2-yl)-1-oxoisoindolin-2-yl)piperidine-2,6-dione]	2.6
CC1(F)CCN(Cc2ccnc(-c3ccc4c(c3)CN(C3CCC(=O)NC3=O)C4=O)c2F)CC1 (centres unmarked) [Example 198, 3-(5-(3-fluoro-4-((4-fluoro-4-methylpiperidin-1-yl)methyl)pyridin-2-yl)-1-oxoisoindolin-2-yl)piperidine-2,6-dione]	51.9
CC(=O)N1CCCCN1Cc1ccnc(-c2ccc3c(c2)CN(C2CCC(=O)NC2=O)C3=O)c1F (centres unmarked) [Example 199, 3-(5-(4-((2-acetyltetrahydropyridazin-1(2H)-yl)methyl)-3-fluoropyridin-2-yl)-1-oxoisoindolin-2-yl)piperidine-2,6-dione]	≥ 10000
CC(C)(C)OC(=O)N1CC2CCCN(Cc3ccnc(-c4ccc5c(c4)CN(C4CCC(=O)NC4=O)C5=O)c3F)C2C1 (centres unmarked) [Example 204, tert-butyl 1-((2-(2-(2,6-dioxopiperidin-3-yl)-1-oxoisoindolin-5-yl)-3-fluoropyridin-4-yl)methyl) octahydro-6H-pyrrolo[3,4-b]pyridine-6-carboxylate]	≥ 10000
O=C1CCC(N2Cc3cc(-c4nccc(CN5CCCC(F)C5)c4F)ccc3C2=O)C(=O)N1 (centres unmarked) [Example 205, 3-(5-(3-fluoro-4-((3-fluoropiperidin-1-yl)methyl)pyridin-2-yl)-1-oxoisoindolin-2-yl)piperidine-2,6-dione]	≥ 10000
CC1(C)C2CN(Cc3ccnc(-c4ccc5c(c4)CN(C4CCC(=O)NC4=O)C5=O)c3F)CC21 (centres unmarked) [Example 206, 3-(5-(4-((6,6-dimethyl-3-azabicyclo[3.1.0]hexan-3-yl)methyl)-3-fluoropyridin-2-yl)-1-oxoisoindolin-2-yl)piperidine-2,6-dione]	11.1
CC(C)(C)OC(=O)N1CCC2(CN(Cc3ccnc(-c4ccc5c(c4)CN(C4CCC(=O)NC4=O)C5=O)c3F)C2)C1 (centres unmarked) [Example 207, tert-butyl 2-((2-(2-(2,6-dioxopiperidin-3-yl)-1-oxoisoindolin-5-yl)-3-fluoropyridin-4-yl)methyl)-2,6-diazaspiro[3.4]octane-6-carboxylate]	≥ 10000
CC(C)(C)OC(=O)N1CCCC2(CN(Cc3ccnc(-c4ccc5c(c4)CN(C4CCC(=O)NC4=O)C5=O)c3F)C2)C1 (centres unmarked) [Example 208, tert-butyl 2-((2-(2-(2,6-dioxopiperidin-3-yl)-1-oxoisoindolin-5-yl)-3-fluoropyridin-4-yl)methyl)-2,6-diazaspiro[3.5]nonane-6-carboxylate]	≥ 10000

From patent publication US20250346574A1, “PYRIDINYL SUBSTITUTED OXOISOINDOLINE COMPOUNDS FOR THE TREATMENT OF CANCER” (Bristol-Myers Squibb Company, priority 2021, published 2025)
